This note sets out measurements from patent US10435399B2, “HDAC6 inhibitory heterocyclic compound” (TAKEDA PHARMACEUTICAL COMPANY LIMITED, priority 2017, dated 2019).

Each structure is given as a SMILES string.

This experiment deals with T1, HDAC6 enzyme (Homo sapiens, UniProt Q9UBN7).
T1 construct: transducing full length HDAC6 gene into Sf-9 insect cells; GST; purchased SignalChem; host or cells: Sf-9 insect cells
T1 sequence (Q9UBN7 1-1215): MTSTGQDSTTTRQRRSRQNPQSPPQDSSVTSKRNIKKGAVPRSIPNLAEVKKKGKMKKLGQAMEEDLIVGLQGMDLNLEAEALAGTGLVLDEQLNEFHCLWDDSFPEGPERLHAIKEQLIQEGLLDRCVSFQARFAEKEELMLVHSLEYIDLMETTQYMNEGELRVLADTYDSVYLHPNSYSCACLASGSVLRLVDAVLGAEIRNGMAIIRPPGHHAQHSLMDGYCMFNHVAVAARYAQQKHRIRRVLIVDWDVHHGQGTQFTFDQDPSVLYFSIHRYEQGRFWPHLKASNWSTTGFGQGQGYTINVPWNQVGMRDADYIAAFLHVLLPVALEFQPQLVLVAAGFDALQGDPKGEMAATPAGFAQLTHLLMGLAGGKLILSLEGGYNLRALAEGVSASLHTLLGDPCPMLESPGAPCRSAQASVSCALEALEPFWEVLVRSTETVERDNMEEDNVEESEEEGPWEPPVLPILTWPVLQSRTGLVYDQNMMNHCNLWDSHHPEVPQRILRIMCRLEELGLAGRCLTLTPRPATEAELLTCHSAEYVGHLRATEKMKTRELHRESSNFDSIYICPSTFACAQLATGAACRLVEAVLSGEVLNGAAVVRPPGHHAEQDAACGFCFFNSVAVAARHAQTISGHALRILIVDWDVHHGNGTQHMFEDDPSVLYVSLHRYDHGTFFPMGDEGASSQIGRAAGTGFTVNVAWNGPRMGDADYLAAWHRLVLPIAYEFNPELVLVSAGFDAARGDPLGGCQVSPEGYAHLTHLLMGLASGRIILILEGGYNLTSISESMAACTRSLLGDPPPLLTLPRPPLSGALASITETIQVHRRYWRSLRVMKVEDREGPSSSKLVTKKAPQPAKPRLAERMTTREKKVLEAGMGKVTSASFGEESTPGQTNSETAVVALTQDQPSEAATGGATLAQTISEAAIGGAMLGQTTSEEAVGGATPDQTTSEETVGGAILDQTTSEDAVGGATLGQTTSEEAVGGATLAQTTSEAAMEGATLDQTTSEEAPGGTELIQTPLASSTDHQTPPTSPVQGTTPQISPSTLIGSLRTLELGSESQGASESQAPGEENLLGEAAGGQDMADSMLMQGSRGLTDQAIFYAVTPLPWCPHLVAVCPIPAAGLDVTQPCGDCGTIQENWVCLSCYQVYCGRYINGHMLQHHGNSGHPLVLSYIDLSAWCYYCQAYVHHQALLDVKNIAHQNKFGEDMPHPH
As to the kind of experiment: HDAC6 enzyme inhibitory activity (HDAC-Glo I/II Assay kit). In kind it is biochemical. Particulars: 10 μM; wells without enzyme = 100% inhibition; read-out: HDAC6 inhibitory rate (%) (10 μM). The procedure, abridged:
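Sf-9-derived GST-purified full-length HDAC6 + cpd, 60 min RT, 24 mM Tris pH 7.5/0.6 mM glutathione/0.01% Tween-20; add HDAC-Glo substrate-developer, 20 min RT; luminescence. No-enzyme = 100% inhibition.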
As for `CCC(F)(F)C(=O)N[C@@H]1CCCC[C@H]1N1Cc2ccc(-c3nnc(C(F)F)o3)cc2C1=O` [Example 67, N-((1R,2R)-2-(6-(5-(difluoromethyl)-1,3,4-oxadiazol-2-yl)-1-oxo-1,3-dihydro-2H-isoindol-2-yl)cyclohexyl)-2,2-difluorobutanamide], the inhibition at 10 µM is 100%.

For the compound `COC1(C(=O)N[C@@H]2CCCC[C@H]2N2Cc3ccc(-c4nnc(C(F)F)o4)cc3C2=O)CC1` [Example 68, N-((1R,2R)-2-(6-(5-(difluoromethyl)-1,3,4-oxadiazol-2-yl)-1-oxo-1,3-dihydro-2H-isoindol-2-yl)cyclohexyl)-1-methoxycyclopropanecarboxamide], the inhibition at 10 µM was 101%.

Take `O=C(N[C@@H]1CCCC[C@H]1N1Cc2ccc(-c3nnc(C(F)F)o3)cc2C1=O)C1CC1F` (stereo partly drawn) [Example 70, N-((1R,2R)-2-(6-(5-(difluoromethyl)-1,3,4-oxadiazol-2-yl)-1-oxo-1,3-dihydro-2H-isoindol-2-yl)cyclohexyl)-2-fluorocyclopropanecarboxamide]: the inhibition at 10 µM amounted to 100%.

For `O=C(N[C@@H]1CCCC[C@H]1N1Cc2ccc(-c3nnc(C(F)F)o3)cc2C1=O)C1CC1C(F)F` (stereo partly drawn) [Example 71, 2-(difluoromethyl)-N-((1R,2R)-2-(6-(5-(difluoromethyl)-1,3,4-oxadiazol-2-yl)-1-oxo-1,3-dihydro-2H-isoindol-2-yl)cyclohexyl)cyclopropanecarboxamide (optical isomer)], the inhibition at 10 µM amounted to 97%.

Regarding `O=C(N[C@@H]1CCCC[C@H]1N1Cc2ccc(-c3nnc(C(F)F)o3)cc2C1=O)C1CC12CCC2` (stereo partly drawn) [Example 72, N-((1R,2R)-2-(6-(5-(difluoromethyl)-1,3,4-oxadiazol-2-yl)-1-oxo-1,3-dihydro-2H-isoindol-2-yl)cyclohexyl)spiro[2.3]hexane-1-carboxamide (optical isomer)], the inhibition at 10 µM was found to be 97%.

On to `CC1CC1C(=O)N[C@@H]1CCCC[C@H]1N1Cc2ccc(-c3nnc(C(F)F)o3)cc2C1=O` (stereo partly drawn) [Example 73, N-((1R,2R)-2-(6-(5-(difluoromethyl)-1,3,4-oxadiazol-2-yl)-1-oxo-1,3-dihydro-2H-isoindol-2-yl)cyclohexyl)-2-methylcyclopropanecarboxamide], for which the inhibition at 10 µM turned out to be 100%.

For the compound `O=C(N[C@@H]1CCCC[C@H]1N1Cc2ccc(-c3nnc(C(F)F)o3)cc2C1=O)C1CC1(F)F` (stereo partly drawn) [Example 74, N-((1R,2R)-2-(6-(5-(difluoromethyl)-1,3,4-oxadiazol-2-yl)-1-oxo-1,3-dihydro-2H-isoindol-2-yl)cyclohexyl)-2,2-difluorocyclopropanecarboxamide (optical isomer)], the inhibition at 10 µM amounted to 102%.

On to `CC1(C)CC1C(=O)N[C@@H]1CCCC[C@H]1N1Cc2ccc(-c3nnc(C(F)F)o3)cc2C1=O` (stereo partly drawn) [Example 75, N-((1R,2R)-2-(6-(5-(difluoromethyl)-1,3,4-oxadiazol-2-yl)-1-oxo-1,3-dihydro-2H-isoindol-2-yl)cyclohexyl)-2,2-dimethylcyclopropanecarboxamide], for which the inhibition at 10 µM stood at 101%.

With `O=C1c2cc(-c3nnc(C(F)F)o3)ccc2CN1[C@@H]1CCCC[C@H]1NC(=O)C1(O)CCC1` [Example 76, N-((1R,2R)-2-(6-(5-(difluoromethyl)-1,3,4-oxadiazol-2-yl)-1-oxo-1,3-dihydro-2H-isoindol-2-yl)cyclohexyl)-1-hydroxycyclobutanecarboxamide], the inhibition at 10 µM amounted to 101%.

Take `O=C1c2cc(-c3nnc(C(F)F)o3)ccc2CN1[C@@H]1CCCC[C@H]1NC(=O)C1(F)CCC1` [Example 77, N-((1R,2R)-2-(6-(5-(difluoromethyl)-1,3,4-oxadiazol-2-yl)-1-oxo-1,3-dihydro-2H-isoindol-2-yl)cyclohexyl)-1-fluorocyclobutanecarboxamide]: the inhibition at 10 µM was determined as 100%.

As for `N#CC1(C(=O)N[C@@H]2CCCC[C@H]2N2Cc3ccc(-c4nnc(C(F)F)o4)cc3C2=O)CCC1` [Example 78, 1-cyano-N-((1R,2R)-2-(6-(5-(difluoromethyl)-1,3,4-oxadiazol-2-yl)-1-oxo-1,3-dihydro-2H-isoindol-2-yl)cyclohexyl)cyclobutanecarboxamide], the inhibition at 10 µM stood at 100%.

As to `O=C(N[C@@H]1CCCC[C@H]1N1Cc2ccc(-c3nnc(C(F)F)o3)cc2C1=O)C1CC2(CCC2)C1` [Example 79, N-((1R,2R)-2-(6-(5-(difluoromethyl)-1,3,4-oxadiazol-2-yl)-1-oxo-1,3-dihydro-2H-isoindol-2-yl)cyclohexyl)spiro[3.3]heptane-2-carboxamide], the inhibition at 10 µM was 97%.

With `O=C1c2cc(-c3nnc(C(F)F)o3)ccc2CN1[C@@H]1CCCC[C@H]1NC(=O)C12CC(C(F)(F)F)(C1)C2` [Example 80, N-((1R,2R)-2-(6-(5-(difluoromethyl)-1,3,4-oxadiazol-2-yl)-1-oxo-1,3-dihydro-2H-isoindol-2-yl)cyclohexyl)-3-(trifluoromethyl)bicyclo[1.1.1]pentane-1-carboxamide], the inhibition at 10 µM turned out to be 101%.

On to `CC(C)(O)C(=O)N[C@@H]1CCCC[C@H]1N1Cc2ccc(-c3nnc(C(F)F)o3)cc2C1=O` [Example 81, N-((1R,2R)-2-(6-(5-(difluoromethyl)-1,3,4-oxadiazol-2-yl)-1-oxo-1,3-dihydro-2H-isoindol-2-yl)cyclohexyl)-2-hydroxy-2-methylpropanamide], for which the inhibition at 10 µM worked out at 101%.

For the compound `CC(C)(C#N)C(=O)N[C@@H]1CCCC[C@H]1N1Cc2ccc(-c3nnc(C(F)F)o3)cc2C1=O` [Example 82, 2-cyano-N-((1R,2R)-2-(6-(5-(difluoromethyl)-1,3,4-oxadiazol-2-yl)-1-oxo-1,3-dihydro-2H-isoindol-2-yl)cyclohexyl)-2-methylpropanamide], the inhibition at 10 µM stood at 100%.

As for `CC(C)(O)CC(=O)N[C@@H]1CCCC[C@H]1N1Cc2ccc(-c3nnc(C(F)F)o3)cc2C1=O` [Example 83, N-((1R,2R)-2-(6-(5-(difluoromethyl)-1,3,4-oxadiazol-2-yl)-1-oxo-1,3-dihydro-2H-isoindol-2-yl)cyclohexyl)-3-hydroxy-3-methylbutanamide], the inhibition at 10 µM amounted to 102%.

In the case of `CC(C)(C(=O)N[C@@H]1CCCC[C@H]1N1Cc2ccc(-c3nnc(C(F)F)o3)cc2C1=O)C(F)(F)F` [Example 84, N-((1R,2R)-2-(6-(5-(difluoromethyl)-1,3,4-oxadiazol-2-yl)-1-oxo-1,3-dihydro-2H-isoindol-2-yl)cyclohexyl)-3,3,3-trifluoro-2,2-dimethylpropanamide], the inhibition at 10 µM came to 100%.

In the case of `COC(C)(C)C(=O)N[C@@H]1CCCC[C@H]1N1Cc2ccc(-c3nnc(C(F)F)o3)cc2C1=O` [Example 85, N-((1R,2R)-2-(6-(5-(difluoromethyl)-1,3,4-oxadiazol-2-yl)-1-oxo-1,3-dihydro-2H-isoindol-2-yl)cyclohexyl)-2-methoxy-2-methylpropanamide], the inhibition at 10 µM was found to be 101%.

With `N#CC1(CC(=O)N[C@@H]2CCCC[C@H]2N2Cc3ccc(-c4nnc(C(F)F)o4)cc3C2=O)CC1` [Example 86, 2-(1-cyanocyclopropyl)-N-((1R,2R)-2-(6-(5-(difluoromethyl)-1,3,4-oxadiazol-2-yl)-1-oxo-1,3-dihydro-2H-isoindol-2-yl)cyclohexyl)acetamide], the inhibition at 10 µM is 96%.

`O=C1c2cc(-c3nnc(C(F)F)o3)ccc2CN1[C@@H]1CCCC[C@H]1NC(=O)C1(c2ccccc2)CC1` [Example 87, N-((1R,2R)-2-(6-(5-(difluoromethyl)-1,3,4-oxadiazol-2-yl)-1-oxo-1,3-dihydro-2H-isoindol-2-yl)cyclohexyl)-1-phenylcyclopropanecarboxamide]: the inhibition at 10 µM stood at 99%.

As for `CC(C)(C(=O)N[C@@H]1CCCC[C@H]1N1Cc2ccc(-c3nnc(C(F)F)o3)cc2C1=O)c1ccccc1` [Example 88, N-((1R,2R)-2-(6-(5-(difluoromethyl)-1,3,4-oxadiazol-2-yl)-1-oxo-1,3-dihydro-2H-isoindol-2-yl)cyclohexyl)-2-methyl-2-phenylpropanamide], the inhibition at 10 µM worked out at 99%.
